One test concerns the target BCL-2^1-211 (Homo sapiens, UniProt P10415). Briefly: Fluorescence polarization competition assay (FPCA), FITC-Bak competed off BCL-2. Format: binding. As to the method: Fluorescence polarization assays were performed in 96 well polypropylene F-bottom black microplates (Greiner Bio-One) with a final volume of 100 μL. […] The changes in the fluorescence polarization were then measured using a BMG PHERAstar FS multimode microplate reader equipped with two PMTs for simultaneous measurements of both the perpendicular and parallel fluorescence emission at a 485 nm excitation and 520 nm emission filter.
The fluorescence polarization competition assays were setup using a Biomek FXP Automated Liquid Handling System. […] The IC50 values were then converted to Ki values using an equation derived by Nikolovska-Coleska et al. All inhibitors were tested in triplicate.

A further test relates to MOLM14 AML cells. The experiment in a line: Luc-labelled MOLM14 AML xenograft pilot experiment in NRG mice. The settings on record: two 5d PO treatment cycles (d1-5, d21-25), imaging d7, d14, d21, 5 mice/group.

Chain of BCL-2^1-211 (P10415 1-211): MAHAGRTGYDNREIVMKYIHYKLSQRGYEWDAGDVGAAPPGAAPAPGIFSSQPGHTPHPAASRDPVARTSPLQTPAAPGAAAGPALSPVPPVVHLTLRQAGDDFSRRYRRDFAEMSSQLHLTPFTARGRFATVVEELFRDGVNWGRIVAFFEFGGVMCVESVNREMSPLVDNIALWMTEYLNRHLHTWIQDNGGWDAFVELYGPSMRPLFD
Protocol for MOLM14 AML cells: Statistical analyses are conducted using GraphPad software. AML burden is quantified using log transformed ratio of luminescence at d7/14/21 vs do for each mouse (fold-change); groups are compared using the appropriate parametric (ANOVA; t-test, etc) or non-parametric alternative as necessary (Wilcoxon rank sum, Kruskal-Wallis). For time-to-event endpoints, Kaplan-Meier survival of groups are compared using the log-rank test. p<0.05 is considered statistically different.
On d0, after Xenogen quantification of baseline total body luminescence (AML burden), groups of 5 AML-bearing mice were treated on days 1-5, per previously established MTD PO×5d schedule, with VEN (150 mg/kg/d PO×5), as monotherapy or co-administered with SOR (30 mg/kg/d PO×5), ART (50 mg/kg/d PO×5), and/or ASP (200 IU/kg IP single dose). A second identical drug cycle was administered on d21-25. On d7, d14 and d21, each mouse was Xenogen imaged for total body luminescence, fold-change AML burden from do was calculated for each mouse, and mean (+/−SD) fold-change for each experimental group plotted.

As for `CC1(C)CCC(CN2CCN(c3ccc(C(=O)NS(=O)(=O)c4ccc(NCCOCCOCCNC(=O)C(c5ccccc5)c5ccccc5)c([N+](=O)[O-])c4)c(Oc4cnc5[nH]ccc5c4)c3)CC2)=C(c2ccc(Cl)cc2)C1` [CG-2-132], the IC50 – broadly, the midpoint of a concentration-inhibition curve – at BCL-2^1-211 is under 20 nM.
`CNC(=O)c1cc(Oc2ccc(NC(=O)Nc3ccc(Cl)c(C(F)(F)F)c3)cc2)ccn1` [Sorafenib]: the “AML burden over time (fold-change total body luminescence) vs vehicle” value in the test with MOLM14 AML cells was “reduced AML burden only moderately”; with MOLM14 AML cells (listed as SOR), “significant difference in AML burden only at d7 and d14”.
Take `CC1(C)CCC(CN2CCN(c3ccc(C(=O)NS(=O)(=O)c4ccc(NCCNC(=O)CC56CC7CC(CC(C7)C5)C6)c([N+](=O)[O-])c4)c(Oc4cnc5[nH]ccc5c4)c3)CC2)=C(c2ccc(Cl)cc2)C1` [SF-7-330]: the half-maximal inhibitory concentration (IC50) on BCL-2^1-211 was under 20 nM.
Take PEGylated L-asparaginase: in the test on MOLM14 AML cells, the “AML burden over time (fold-change total body luminescence) vs vehicle” value is on record as “minimal activity”.
Turning to `CC(C)Cc1ccc([C@@H](C)C(=O)NCCOCCOCCNc2ccc(S(=O)(=O)NC(=O)c3ccc(N4CCN(CC5=C(c6ccc(Cl)cc6)CC(C)(C)CC5)CC4)cc3Oc3cnc4[nH]ccc4c3)cc2[N+](=O)[O-])cc1` [CG-3-005], the IC50 at BCL-2^1-211 was under 20 nM.

These data come from patent US20240299558A1, “PROTEOLYSIS TARGETING CHIMERAS AND POLYPHARMACOLOGICAL AGENTS TARGETING BCL-2, AND METHODS OF USE THEREOF” (University of Maryland, Baltimore, priority 2021, published 2024).
